IC50 data for 21 compounds are collected here from patent publication US20230399332A1, “IMIDAZO[1,2-a]PYRAZINE OR PYRAZOLO[1,5-a]PYRIMIDINE DERIVATIVE AND USE THEREOF” (TENCENT TECHNOLOGY (SHENZHEN) COMPANY LIMITED, priority 2022, published 2023).

The assay has as its target LSD1 (Homo sapiens (Human), UniProt O60341). In words: LSD1 inhibitory activity on an enzyme level, AlphaScreen method. The assay is classed as biochemical. The conditions noted are these: in vitro. The method, then:
This experiment was carried out to test the in vitro inhibitory activity of the compounds of the present disclosure against LSD1.
Experimental steps and a method: In this experiment, the in vitro inhibitory activity of the compounds of the present disclosure against LSD1 on an enzyme level was tested by using an AlphaScreen method. The experimental steps are described as follows: • a) preparation of a 1× buffer: • preparing a 1× buffer (improved trihydroxymethylaminomethane buffer); • b) continuous dilution of the compounds: • transferring the compounds of the present disclosure to a porous plate by using Echo at a final DMSO concentration of 1%; • c) preparation of an enzyme solution: • preparing an enzyme solution in the 1× buffer; • d) preparation of a substrate solution: • adding polypeptide to the 1× buffer to prepare a substrate solution; • e) transferring 5 μL of the enzyme solution or the 1× buffer to the porous plate; • f) conducting incubation at room temperature for 15 min; • g) adding 5 μL of the substrate solution to each well to induce a reaction; • h) conducting incubation at room temperature for 40 min; • i) preparing a 1× Alphalisa buffer; • j) preparation of a 1× Alphalisa buffer solution of receptors and donors: • adding 15 μL of a receptor and donor solution in dark light environment, and conducting incubation at room temperature for 60 min; • k) reading an endpoint in an EnSpire Alpha mode; and • l) data processing: • calculating an inhibitory value according to an equation 1:
Inh %=(Max−Signal)/(Max−Min)*100; and equation 1: • calculating an IC50 value by using XL-Fit according to an equation 2:
Y=Bottom+(Top-Bottom)/(1+(IC50/X)[…]), equation 2: • where Y indicates the inhibitory rate, and X indicates the concentration of a compound.
(Alpha assays give light when donor and acceptor beads are brought close together.)
By IC50 is commonly meant the concentration that inhibits the measured activity by half. Lower therefore signals greater potency. The compound “4-(7-(4-aminopiperidin-1-yl)-3-(3-fluoro-4-methoxyphenyl)imidazo [1,5-a]pyrazin-2-yl)-2-fluorobenzonitrile [Compound 3]” displayed an IC50 of 2.6 nM.
The value for `COc1ccc(-c2c(-c3ccc(C#N)c(F)c3)nc3c(N[C@@H]4CC[C@H](N)C4)nccn23)cc1F` (relative stereo) [Compound 14, cis-4-(8-(((1R,3S)-3-aminocyclopentyl)amino)-3-(3-fluoro-4-methoxyphenyl)imidazo[1,2-a]pyrazin-2-yl)-2-fluorobenzonitrile] was 37 nM; that for `COc1ccc(-c2c(-c3ccc(C#N)c(F)c3)nc3c(N[C@@H]4CC[C@@H](N)C4)nccn23)cc1F` (relative stereo) [Compound 15, trans-4-(8-(((1R,3R)-3-aminocyclopentyl)amino)-3-(3-fluoro-4-methoxyphenyl)imidazo[1,2-a]pyrazin-2-yl)-2-fluorobenzonitrile] was 11 nM.
The value for `COc1ccc(-c2c(-c3ccc(C#N)c(F)c3)nc3c(N4CCC(N)CC4)nccn23)cc1F` [Compound 1, 4-(8-(4-aminopiperidin-1-yl)-3-(3-fluoro-4-methoxyphenyl)imidazo [1,2-a]pyrazin-2-yl)-2-fluorobenzonitrile] was 7.4 nM.
The value for `COc1ccc(-c2c(-c3ccc(C#N)c(F)c3)nc3c(N4CCC[C@@H](N)C4)nccn23)cc1F` [Compound 2, (R)-4-(8-(3-aminopiperidin-1-yl)-3-(3-fluoro-4-methoxyphenyl)imidazo [1,2-a]pyrazin-2-yl)-2-fluorobenzonitrile] was 1.3 nM; that for `Cn1ncc2cc(-c3c(-c4ccc(C#N)c(F)c4)nc4c(N5CCC[C@@H](N)C5)nccn34)ccc21` [Compound 5, (R)-4-(8-(3-aminopiperidin-1-yl)-3-(1-methyll-1H-indazol-5-yl)imidazo [1,2-a]pyrazin-2-yl)-2-fluorobenzonitrile] was 2.3 nM; that for `COc1ccc(-c2c(-c3ccc(C#N)c(F)c3)nc3c(NCC4CCCN4)nccn23)cc1F` (stereo not drawn) [Compound 6, 2-fluoro-4-(3-(3-fluoro-4-methoxyphenyl)-8-((pyrrolidin-2-ylmethyl)amino)imidazo[1,2-a]pyrazin-2-yl)benzonitrile] was 45 nM.
Consider `COc1ccc(-c2c(-c3ccc(C#N)c(F)c3)nc3c(NC4CCCNC4)nccn23)cc1F` (stereo not drawn) [Compound 7, 2-fluoro-4-(3-(3-fluoro-4-methoxyphenyl)-8-(piperidin-3-ylamino)imidazo[1,2-a]pyrazin-2-yl)benzonitrile], for which inhibition was half-maximal at 12 nM (IC50).
In the case of `Cn1ncc2cc(-c3c(-c4ccc(C#N)c(F)c4)nc4c(N5CCC[C@@H](N)C5)nccn34)ccc21` [Compound 8, (R)-4-(8-(3-aminopiperidin-1-yl)-3-(1-methyll-1H-indazol-5-yl)imidazo [1,2-a]pyrazin-2-yl)-2-fluorobenzonitrile], the IC50 was 1.7 nM.
Compound `CN1CCOc2cc(-c3c(-c4ccc(C#N)c(F)c4)nc4c(N5CCC[C@@H](N)C5)nccn34)ccc21` [Compound 9, (R)-4-(8-(3-aminopiperidin-1-yl)-3-(4-methyll-3,4-dihydro-2H-benzo [b][1,4]oxazin-7-yl)imidazo[1,2-a]pyrazin-2-yl)-2-fluorobenzonitrile] gave an IC50 of 0.88 nM.
For `N#Cc1ccc(-c2nc3c(N4CCC[C@@H](N)C4)nccn3c2-c2cnn(CC(F)(F)F)c2)cc1F` [Compound 10, (R)-4-(8-(3-aminopiperidin-1-yl)-3-(1-(2,2,2-trifluoroethyl)-1H-pyrazol-4-yl)imidazo[1,2-a]pyrazin-2-yl)-2-fluorobenzonitrile] the value was 7.5 nM; for `CC(C)(O)Cn1ncc2cc(-c3c(-c4ccc(C#N)c(F)c4)nc4c(N5CCC[C@@H](N)C5)nccn34)ccc21` [Compound 11, (R)-4-(8-(3-aminopiperidin-1-yl)-3-(1-(2-hydroxy-2-methylpropyl)-1H-indazol-5-yl)imidazo[1,2-a]pyrazin-2-yl)-2-fluorobenzonitrile], 0.97 nM.
For `COc1ccc(-c2c(-c3ccc(C#N)c(F)c3)nc3c(NCC4CCNC4)nccn23)cc1F` (stereo not drawn) [Compound 13, 2-fluoro-4-(3-(3-fluoro-4-methoxyphenyl)-8-((pyrrolidin-3-ylmethyl)amino)imidazo[1,2-a]pyrazin-2-yl)benzonitrile] the value was 56 nM; for `COc1ccc(-c2c(-c3ccc(C#N)c(F)c3)nc3c(NC4CCNC4)nccn23)cc1F` (stereo not drawn) [Compound 16, 2-fluoro-4-(3-(3-fluoro-4-methoxyphenyl)-8-(pyrrolidin-3-ylamino)imidazo[1,2-a]pyrazin-2-yl)benzonitrile], 15 nM.
For `Cn1cc2cc(-c3c(-c4ccc(C#N)c(F)c4)nc4c(N5CCC[C@@H](N)C5)nccn34)ccc2n1` [Compound 17, (R)-4-(8-(3-aminopiperidin-1-yl)-3-(2-methyll-2H-indazol-5-yl)imidazo [1,2-a]pyrazin-2-yl)-2-fluorobenzonitrile] the value was 6.3 nM.
Compound `CC(C)(O)Cn1ncc2cc(-c3c(-c4ccc(C#N)c(F)c4)nc4c(N5CCC[C@@H](N)C5)nccn34)c(F)cc21` [Compound 19, (R)-4-(8-(3-aminopiperidin-1-yl)-3-(6-fluoro-1-(2-hydroxy-2-methylpropyl)-1H-indazol-5-yl)imidazo[1,2-a]pyrazin-2-yl)-2-fluorobenzonitrile] came in with an IC50 of 0.71 nM.
Compound `CC(C)(O)Cn1cc2cc(-c3c(-c4ccc(C#N)c(F)c4)nc4c(N5CCC[C@@H](N)C5)nccn34)c(F)cc2n1` [Compound 21, (R)-4-(8-(3-aminopiperidin-1-yl)-3-(6-fluoro-2-(2-hydroxy-2-methylpropyl)-2H-indazol-5-yl)imidazo[1,2-a]pyrazin-2-yl)-2-fluorobenzonitrile] gave an IC50 of 2.3 nM.
For `CC(C)(O)Cc1ccc(-c2c(-c3ccc(C#N)c(F)c3)nc3c(N4CCC[C@@H](N)C4)nccn23)c(F)c1` [Compound 22, (R)-4-(8-(3-aminopiperidin-1-yl)-3-(2-fluoro-4-(2-hydroxy-2-methylpropyl)phenyl)imidazo[1,2-a]pyrazin-2-yl)-2-fluorobenzonitrile] the value was 2.5 nM; for `CC(C)(O)Cn1nnc2cc(-c3c(-c4ccc(C#N)c(F)c4)nc4c(N5CCC[C@H](N)C5)nccn34)c(F)cc21` [Compound 23, (S)-4-(8-(3-aminopiperidin-1-yl)-3-(6-fluoro-1-(2-hydroxy-2-methylpropyl)-1H-benzo[d][1,2,3]triazol-5-yl)imidazo[1,2-a]pyrazin-2-yl)-2-fluorobenzonitrile], 4.4 nM; for `CCC(O)(CC)Cn1nnc2cc(-c3c(-c4ccc(C#N)c(F)c4)nc4c(N5CCC[C@H](N)C5)nccn34)c(F)cc21` [Compound 26, (S)-4-(8-(3-aminopiperidin-1-yl)-3-(1-(2-ethyl-2-hydroxybutyl)-6-fluoro-1H-benzo[d][1,2,3]triazol-5-yl)imidazo[1,2-a]pyrazin-2-yl)-2-fluorobenzonitrile], 0.7 nM.
For `CC(C)(O)Cn1nnc2cc(-c3c(-c4ccc(C#N)c(F)c4)nc4c(N5[C@@H]6CC[C@H]5C[C@@H](NC(=O)OC(C)(C)C)C6)nccn34)c(F)cc21` [Compound 28, ((1R,3r,5S)-8-(2-(4-cyano-3-fluorophenyl)-3-(6-fluoro-1-(2-hydroxy-2-methylpropyl)-1H-benzo[d][1,2,3]triazol-5-yl)imidazo[1,2-a]pyrazin-8-yl)-8-azabicyclo[3.2.1]octane-3-yl)carbamate] the value was 5.5 nM.
